The values that follow come from ChEMBL document CHEMBL1201862, “PubChem BioAssay data set” (2004).

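Step 1: Grow cells in 96-well plates. Step 2: Expose to compound for 48 hours at 5 concentrations. Step 3: Interpolate endpoints linearly; if unreached, use highest concentration. Here, GI50 denotes the concentration required for 50% inhibition of growth.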 Activity calls are given as the source filed them. Cut-off read from the data, not from the text of the source: active = GI50 up to about 1.1 µM and inactive = higher.

Among the test systems are K562; A498; SK-MEL-2; SF-539; Hs-578T; MDA-MB-435; OVCAR-3; HCC 2998; NCI-H522; NCI-H226; OVCAR-8; HCT-15; PC-3; CAKI-1; MOLT-4; Malme-3M; DU-145; 786-0; TK-10; SF-268.
Holding throughout (test): NCI anticancer screen, dose series, 48 h

Regarding `COC(=O)[C@]12CCC(C)(C)C[C@H]1[C@H]1C(=O)C=C3[C@@]4(C)C=C(C#N)C(=O)C(C)(C)[C@@H]4CC[C@@]3(C)[C@]1(C)CC2` [BARDOXOLONE METHYL], the GI50 with K562 was 0.0205 µM (active); in the assay on A498 it was 0.046 µM (active); with SK-MEL-2, 0.027 µM (active); in the assay with SF-539, 0.0419 µM (active); in the assay on Hs-578T, 0.0321 µM (active); with MDA-MB-435, 0.0164 µM (active). In addition, the GI50 is 0.0103 µM (active) in the assay on OVCAR-3; 0.0112 µM (active) in the assay with HCC 2998; 0.0728 µM (active) in the assay with NCI-H522; 0.0346 µM (active) in the assay with NCI-H226; 0.0199 µM (active) in the assay with OVCAR-8; 0.0178 µM in the assay on HCT-15. Besides, the GI50 in the assay with PC-3 was 0.0165 µM (active); with CAKI-1, 0.0273 µM (active); in the assay with MOLT-4 it was < 0.01 µM (active); in the assay on Malme-3M it was 0.0667 µM (active); in the assay on DU-145, 0.0239 µM (active); with 786-0, 0.0279 µM (active). Besides, the values for the GI50 in the assay with TK-10 and with SF-268 were 0.0269 µM (active) and 0.0238 µM (active), respectively.
